Key:
[1] = target: T1, isolated guinea pig ileum (histamine) (Cavia porcellus, UniProt P31389); test: Antihistaminic action (in vitro), inhibition of histamine-induced contraction of isolated ileum; assay type: cell-based; settings: for inhibition at 10 µM: 10^-5 M, 30 minutes incubation, 37° C., read-out: Antihistaminic (%), contraction inhibition rate; for pD'2 (antihistaminic action): isolated guinea pig ileum, histamine, 30 min
T1 construct: An isolated guinea pig ileum was cut into about 2 cm lengths; from tissue; host or cells: isolated guinea pig ileum
Description: (§1) Antihistaminic Action and Anti-LTD4 Action (In vitro Tests)
(§2) An isolated guinea pig ileum was cut into about 2 cm lengths. Each ileum piece was suspended in a 20-ml container filled with the Krebs buffer. An isotonic contractive response by histamine or leukotriene D4 was recorded on a recorder. The Krebs buffer was controlled at 37° C., through which a mixed gas (95%O2 -5%CO2) was bubbled. First, histamine or leukotriene D4 was added to an organ bath to measure its dose-response. After the ileum piece was washed several times with the buffer, a test compound (will be identified by its example number; this will apply likewise hereinafter) of a predetermined specific concentration was added. Subsequent to incubation for 30 minutes, the dose-response of histamine or leukotriene D4 was measured again. Incidentally, in Table 7, the values (%) indicate contraction inhibition rate at 10^-5 M, while the values in parentheses show pD'2 values in the case of antihistaminic action and IC50 values in the case of anti-LTD4 action.

[2] = system: isolated guinea pig ileum (leukotriene D4); test: Anti-LTD4 action (in vitro), inhibition of leukotriene D4-induced contraction of isolated ileum; assay type: cell-based; settings: Cavia porcellus; for inhibition at 10 µM: 0.5 h, 10^-5 M, 30 minutes incubation, 37° C., read-out: Anti-LTD4 action (%), contraction inhibition rate; for IC50: isolated guinea pig ileum, leukotriene D4
Description: as §1, §2

[3] = system: leukotriene D4; test: Anti-LTD4 action in vivo, Evans Blue transudation in back skin after intracutaneous leukotriene D4; design: species or system male Hartley guinea pig; settings: Cavia porcellus, po, 1 h; orally 10 mg/kg, one hour before; leukotriene D4 0.5 μg/ml, 0.1 ml intracutaneously; read-out: Anti-LTD4 action (%), inhibition rate
Description: (§3) Antihistaminic Action and Anti-LTD4 Action (In vivo Tests)
(§4) After the hair on the back of a male Hartley guinea pig was cut off, a test compound was orally administered at 10 mg/kg. One hour later, 5% Evans Blue solution was intravenously administered at 1 ml/kg and immediately after that, a 0.3 μg/ml solution of histamine and a 0.5 μg/ml solution of leukotriene D4 were intracutaneously administered each in an amount of 0.1 ml to the back. Thirty minutes later, the guinea pig was sacrificed under exsanguination, the skin was cut off, and the transudated color was quantitated by extraction. To a control, 0.5% CMC (carboxylmethylcellulose) was orally administered and the subsequent procedures were repeated likewise. From the difference in the amount of the transudated color between the control and the group administered with the test compound, an inhibition rate was calculated.

[4] = target: T2, H1 receptor (Cavia porcellus, UniProt P31389); test: H1 receptor binding inhibition test ([^3 H]mepyramin, guinea pig cerebromembranous protein); settings: for Kd: read-out: H1 receptor, dissociation constant KD; for inhibition at 100 µM: a: 100 μM; for inhibition at 100 µM / inhibition at 10 µM: read-out: H1 receptor (%), inhibition rate; for inhibition at 10 µM: b: 10 μM
T2 construct: guinea pig cerebromembranous protein; from tissue; host or cells: guinea pig cerebral (brain) membranes
In short: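 [³H]Mepyramine binding to guinea pig brain membranes was stopped with ice-cold phosphate buffer and filtered, and bound radioactivity was measured by liquid scintillation. Nonspecific binding was defined with 10^-4 M R(-)dimethindene. IC50 came from concentration-response data and was converted to a dissociation constant by Cheng-Prusoff.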

[5] = target: T3, LTD4 receptor (Cavia porcellus, UniProt Q2NNR5); test: LTD4 receptor binding inhibition test ([^3 H]leukotriene D4, guinea pig pulmomembranous protein); settings: for Kd: read-out: LTD4 receptor, dissociation constant KD
T3 construct: guinea pig pulmomembranous protein; from tissue; host or cells: guinea pig lung membranes
T3 sequence (Q2NNR5 1-340): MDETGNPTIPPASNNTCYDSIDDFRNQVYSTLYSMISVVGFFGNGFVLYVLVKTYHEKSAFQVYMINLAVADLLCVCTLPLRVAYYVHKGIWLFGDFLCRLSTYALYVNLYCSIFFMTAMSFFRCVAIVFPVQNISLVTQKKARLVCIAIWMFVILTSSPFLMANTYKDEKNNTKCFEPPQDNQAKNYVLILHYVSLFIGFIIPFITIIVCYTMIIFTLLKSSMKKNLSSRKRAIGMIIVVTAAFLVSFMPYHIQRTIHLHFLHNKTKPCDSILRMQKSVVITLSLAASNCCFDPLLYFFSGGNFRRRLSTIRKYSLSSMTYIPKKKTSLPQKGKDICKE
In short: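 Filtration binding with [3H]LTD4 on guinea pig lung membranes; reaction stopped with ice-cold Tris-HCl/NaCl buffer (10 mM/100 mM, pH 7.5), bound radioactivity by scintillation counting. Nonspecific binding defined with 2 μM leukotriene D4. IC50 from dose-response, converted to dissociation constant by Cheng-Prusoff.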

[6] = system: histamine (H1); test: Antihistaminic (anti-H1) action in vivo, Evans Blue transudation in back skin after intracutaneous histamine; design: species or system male Hartley guinea pig; settings: orally 10 mg/kg, one hour before; histamine 0.3 μg/ml, 0.1 ml intracutaneously
Description: as §3, §4

[7] = system: cortical edema; settings: intravenous administration after occurrence of ischemia; cited from earlier work

T1 sequence (P31389 whole entry): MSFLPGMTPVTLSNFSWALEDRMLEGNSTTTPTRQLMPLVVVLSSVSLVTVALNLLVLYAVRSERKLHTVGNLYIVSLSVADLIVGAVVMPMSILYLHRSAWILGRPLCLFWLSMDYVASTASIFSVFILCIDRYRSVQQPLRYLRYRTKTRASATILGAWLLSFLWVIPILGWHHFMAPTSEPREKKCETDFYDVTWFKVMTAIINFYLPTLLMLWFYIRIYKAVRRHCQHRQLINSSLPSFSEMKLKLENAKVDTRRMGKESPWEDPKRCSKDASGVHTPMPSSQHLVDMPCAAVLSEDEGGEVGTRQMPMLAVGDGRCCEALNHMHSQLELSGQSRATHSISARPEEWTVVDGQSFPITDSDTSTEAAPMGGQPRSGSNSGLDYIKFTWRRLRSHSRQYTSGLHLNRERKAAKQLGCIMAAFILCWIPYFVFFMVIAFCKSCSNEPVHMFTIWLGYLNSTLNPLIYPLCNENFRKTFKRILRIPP
T2 sequence (P31389 whole entry): as above

inhibition at 10 µM [1] [%] | IC50 [2] [nM] | Kd [4] [nM] | Kd [5] [nM] | pD'2 (antihistaminic action) [1] | inhibition at 100 µM [4] [%] | inhibition at 10 µM ([5]; b: 10 μM, read-out: LTD4 receptor (%), inhibition rate) [%] | inhibition at 10 µM [4] [%] | Ki ([5]; read-out: LTD4 receptor, dissociation constant KD (converted)) [nM] | Structure (SMILES) | inhibition at 10 µM [2] [%] | inhibition in vivo at 10 mg/kg [3] [%] | Anti-H1 action (%), inhibition rate [6] [%] | increase and aggravation of cortical edema [7]
16 | 1700 | 87900 | 209 |  |  |  |  |  | O=C1CCc2ccc(OCc3ccc(OCc4ncc5ccccc5n4)cc3)cc2N1 [Example 35, 7-[4-(2-quinazolinylmethoxy)benzyloxy]-1,2,3,4-tetrahydroquinolin-2-one] | 87 | 11 |  | 
65 | 130 |  | 9.7 | 5.25 | 46 |  |  |  | O=C1CSc2cc(OCc3cccc(OCc4ncc5ccccc5n4)c3)ccc2N1 [Example 33, 7[3-(2-quinazolinylmethoxyl)benzyloxy]-3,4-dihydro-2H-1,4-benzothiazin-3-one] | 100 | 40 |  | 
 |  |  | 12600 |  | 29 |  |  |  | O=C1CS(=O)(=O)c2cc(OCc3cccc(OCc4nc5ccccc5s4)c3)ccc2N1 [Example 78, 7-[3-(2-Benzothiazolylmethoxy)benzyloxy]-3,4-dihydro-2H-1,4-benzothiazin-3-one 1,1-dioxide] |  | 32 |  | 
 |  |  |  |  | 36 | 37 |  |  | CC1(C)C(=O)Nc2cc(OCc3cccc(OCc4ccc5ccccc5n4)c3)ccc21 [Example 15] |  | 37 | 17 | 
 | 240 |  | 41.3 | 5.09 |  |  | 6 |  | O=C1CCCc2cc(OCc3cccc(OCc4ccc5ccccc5n4)c3)ccc21 [Example 89, 6-[3-(2-quinolinylmethoxy)benzyloxy]-1-tetralone] |  |  |  | 
98 | 120 |  | 315 | 6.17 |  |  | 14 |  | CN(Cc1cccc(OCc2ccc3ccccc3n2)c1)c1ccc2c(c1)SCC(=O)N2C [96(b), 4-methyl-7-[N-methyl-N-(3-(2-quinolinylmethoxy)benzyl)amino]-3,4-dihydro-2H-1,4-benzothiazin-3-one] |  |  |  | 
37 | 460 |  | 81.4 |  |  |  | 18 |  | O=C1CCc2cc(OCc3cccc(OCc4ccc5ccccc5n4)c3)ccc2N1 [Example 6] | 98 | 12 |  | 
 |  |  |  |  |  |  |  |  | CCCc1c(OCC(O)COc2ccc3c(=O)cc(C(=O)O)oc3c2CCC)ccc(C(C)=O)c1O (stereo not shown) [FPL55712] |  |  |  | significantly inhibited
100 | 1500 |  | 202 | 5.35 | 40 |  |  |  | CC1(C)C(=O)Nc2c(OCc3cccc(OCc4ccc5ccccc5n4)c3)cccc21 [Example 17, 3,3-Dimethyl-7-[3-(2-quinolinylmethoxy)benzyloxy]-2,3-dihydro-1H-indol-2-one] | 96 | 21 | 19 | 
100 | 440 | 37400 |  | 6.42 |  |  |  | 408 | Cc1ccc(OCc2ccc(OCc3nc4ccccc4n3C)cc2)c2c1NC(=O)C2(C)C [Example 39, 4-[4-(N-methylbenzimidazol-2-yl-methoxy)benzyloxy)-3,3,7-trimethyl-2,3-hydro-1H-indol-2-one] | 98 |  |  | 
 |  |  | 12.5 |  | 50 |  |  |  | O=C1CSc2cc(OCc3cccc(OCc4ccc5ccccc5n4)c3)ccc2N1 [Example 10, 7-[3-(2-Quinolinylmethoxy)benzyloxy]-3,4-dihydro-2H-1,4-benzothiazin-3-one] |  | 32 | 36 | 
 |  |  | 200 |  | 32 |  |  |  | CC1(C)C(=O)Nc2c(OCc3ccc(OCc4ccc5ccccc5n4)cc3)cccc21 [Example 30, 3,3-Dimethyl-7-[4-(2-quinolinylmethoxy)benzyloxy]-2,3-dihydro-1H-indol-2-one] |  | 44 | 40 | 
